Experimental data: PMC11243598, “Inhibition of Monoamine Oxidases by Pyridazinobenzylpiperidine Derivatives” (Molecules, 2024)

Experiments:
MAO-B [1] = details: cited from earlier work
MAO-B [2] = biological target: T1, MAO-B (Homo sapiens, UniProt P27338); experiment: MAO-B inhibition kinetics (Lineweaver-Burk and secondary plots); assay type: biochemical; set-up: purchased Sigma-Aldrich; details: for Type of MAO-B inhibition: LB plots, five substrate and three inhibitor concentrations; for Ki: secondary plot of LB slopes, benzylamine substrate
T1 sequence (P27338 1-520): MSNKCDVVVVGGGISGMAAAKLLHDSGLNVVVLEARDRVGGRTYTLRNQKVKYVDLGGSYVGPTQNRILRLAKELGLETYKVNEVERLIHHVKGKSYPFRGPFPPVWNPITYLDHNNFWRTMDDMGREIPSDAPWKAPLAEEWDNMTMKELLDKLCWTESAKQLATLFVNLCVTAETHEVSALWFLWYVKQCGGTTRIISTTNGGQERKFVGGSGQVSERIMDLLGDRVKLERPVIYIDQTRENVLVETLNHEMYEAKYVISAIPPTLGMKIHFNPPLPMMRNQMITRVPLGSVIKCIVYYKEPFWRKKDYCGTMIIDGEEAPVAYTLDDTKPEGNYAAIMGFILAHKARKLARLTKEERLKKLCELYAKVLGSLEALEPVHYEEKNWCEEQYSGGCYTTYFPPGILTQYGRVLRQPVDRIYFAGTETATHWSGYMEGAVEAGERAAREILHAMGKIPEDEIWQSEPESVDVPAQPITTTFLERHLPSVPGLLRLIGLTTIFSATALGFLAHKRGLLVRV

hMAO-A = biological target: T2, hMAO-A (Homo sapiens, UniProt P21397); experiment: Inhibition of recombinant hMAO-A, kynuramine substrate, continuous absorbance method; details: for remaining activity at 10 µM: read-out: Residual Activity at 10 µM (%) MAO-A
T2 sequence (P21397 1-527): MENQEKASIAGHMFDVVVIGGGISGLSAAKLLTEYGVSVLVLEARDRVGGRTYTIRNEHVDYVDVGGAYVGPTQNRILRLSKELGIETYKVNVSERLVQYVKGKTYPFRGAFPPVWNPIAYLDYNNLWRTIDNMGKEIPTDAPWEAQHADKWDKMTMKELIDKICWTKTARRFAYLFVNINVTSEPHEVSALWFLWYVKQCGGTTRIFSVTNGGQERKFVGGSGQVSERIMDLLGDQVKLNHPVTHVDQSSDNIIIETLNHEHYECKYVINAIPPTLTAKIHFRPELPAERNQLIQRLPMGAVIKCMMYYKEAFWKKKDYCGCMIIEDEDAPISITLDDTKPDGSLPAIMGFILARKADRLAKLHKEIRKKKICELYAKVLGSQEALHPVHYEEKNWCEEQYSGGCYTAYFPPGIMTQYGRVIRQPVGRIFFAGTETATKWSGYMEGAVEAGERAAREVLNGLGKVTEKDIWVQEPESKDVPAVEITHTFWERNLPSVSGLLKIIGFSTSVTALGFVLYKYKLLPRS

[3] = PAMPA for blood-brain barrier permeation; assay type: in vitro ADME; details: for Experimental Pe / Papp: PAMPA-BBB, pH 7.4; for Papp: read-out: Experimental Pe
MAO-B [4] = biological target: T1, MAO-B; experiment: biochemical; details: for remaining activity at 10 µM: read-out: Residual Activity at 10 µM (%) MAO-B
MAO-B [5] = biological target: T1, MAO-B; experiment: Reversibility of MAO-B inhibition by dialysis; assay type: biochemical; set-up: purchased Sigma-Aldrich; details: for Reversibility of MAO-B inhibition: dialysis, compared with safinamide and pargyline
MAO-B [6] = biological target: T1, MAO-B; details: ratio of IC50 values within the S series

| Type of MAO-B inhibition (MAO-B [2]) | Ki (MAO-B [2]) | IC50 (hMAO-A) | remaining activity at 10 µM (hMAO-A) | Experimental Pe [3] | Papp [3] | IC50 (MAO-B [4]) | remaining activity at 10 µM (MAO-B [4]) | Reversibility of MAO-B inhibition (MAO-B [5]) | Times higher MAO-B inhibition than other derivatives (MAO-B [6]) | SMILES | IC50 (MAO-B [1]) | Prediction (BBB permeation class) ([3]; class from Pe) | activity (MAO-B [5]; about 2.0 times IC50 (S5 0.4 μM, S16 2.0 μM), 30 min pre-incubation, read-out: Residual MAO-B activity before recovery, undialyzed (AU)) |
| --- | --- | --- | --- | --- | --- | --- | --- | --- | --- | --- | --- | --- | --- |
| – | – | – | – | – | – | – | – | – | – | O=C(Cn1nc(N2CCOCC2)ccc1=O)NN=Cc1ccc(Cl)cc1 [TR16] | 170 nM | – | – |
| competitive | 721 ± 74 nM | 6150 ± 305 nM | 33.2 ± 9.25% | 3.78 ×10⁻⁶ cm/s | 3.78 ± 0.2 ×10⁻⁶ cm/s | 979 ± 206 nM | -12.9 ± 1.14% | reversible | – | N#Cc1ccccc1C=NNC(=O)Cn1nc(N2CCC(Cc3ccccc3)CC2)ccc1=O [Compound S16, N′-2-cyanobenzylidene-2-(3-(4-benzylpiperidin-1-yl)-6-oxopyridazin-1(6H)-yl)acetohydrazide] | – | – | – |
| competitive | 155 ± 50 nM | 3860 ± 770 nM | 25.6 ± 3.85% | 5.75 ×10⁻⁶ cm/s | 5.75 ± 0.13 ×10⁻⁶ cm/s | 203 ± 4 nM | -24.6 ± 8.51% | reversible | 4.82–53.94 times | O=C(Cn1nc(N2CCC(Cc3ccccc3)CC2)ccc1=O)NN=Cc1cccc(Cl)c1 [Compound S5, N′-3-chlorobenzylidene-2-(3-(4-benzylpiperidin-1-yl)-6-oxopyridazin-1(6H)-yl)acetohydrazide] | – | CNS+ (Pe (10^−6 cm·s^−1) > 4.00: CNS+ (high permeation)) | – |

| SMILES | Type of MAO-B inhibition (MAO-B [2]) | Ki (MAO-B [2]) | IC50 (hMAO-A) | remaining activity at 10 µM (hMAO-A) | Experimental Pe [3] | Papp [3] | IC50 (MAO-B [4]) | remaining activity at 10 µM (MAO-B [4]) | Reversibility of MAO-B inhibition (MAO-B [5]) | Times higher MAO-B inhibition than other derivatives (MAO-B [6]) | IC50 (MAO-B [1]) | Prediction (BBB permeation class) ([3]; class from Pe) | activity (MAO-B [5]; about 2.0 times IC50 (S5 0.4 μM, S16 2.0 μM), 30 min pre-incubation, read-out: Residual MAO-B activity before recovery, undialyzed (AU)) |
| --- | --- | --- | --- | --- | --- | --- | --- | --- | --- | --- | --- | --- | --- |
| C[C@H](NCc1ccc(OCc2cccc(F)c2)cc1)C(N)=O [Safinamide, reference compound] | – | – | – | 69 ± 1.36% | – | – | – | -15.6 ± 0.86% | – | – | – | – | 28.3% |
